Laboratory results from US20250049033A1, “PESTICIDALLY ACTIVE PYRIDAZINONE COMPOUNDS” (SYNGENTA CROP PROTECTION AG, priority 2021, published 2025).

Experiments:
Assay type in all cases: in vivo
Plutella xylostella = experiment: Activity against Plutella xylostella (diamond back moth), artificial diet, eggs; details: 192 h, application rate 200 ppm, 8 days after infestation, vs untreated, read-out: control in at least one of the two categories (mortality or growth inhibition)
Method: Example B7: Activity Against Plutella xylostella (Diamond Back Moth)
24-well microtiter plates with artificial diet were treated with aqueous test solutions prepared from 10′000 ppm DMSO stock solutions by pipetting. After drying, Plutella eggs were pipetted through a plastic stencil onto a gel blotting paper and the plate was closed with it. The samples were assessed for mortality and growth inhibition in comparison to untreated samples 8 days after infestation. The following compounds gave an effect of at least 80% control in at least one of the two categories (mortality or growth inhibition) at an application rate of 200 ppm: P1, P2, P3, P4, P6, P7, P8, P9, P10, P11, P12, P13, P14, P15, P16, P17, P18, P19, P20, P21, P22, P23, P24, P25, P26, P27.

Myzus persicae [1] = experiment: Activity against Myzus persicae (green peach aphid), feeding/contact activity; details: foliar, 144 h, application rate 200 ppm, 6 days after infestation, sunflower leaf discs, mixed ages
Method: Example B5: Activity Against Myzus persicae (Green Peach Aphid). Feeding/Contact Activity
Sunflower leaf discs were placed onto agar in a 24-well microtiter plate and sprayed with aqueous test solutions prepared from 10′000 ppm DMSO stock solutions. After drying, the leaf discs were infested with an aphid population of mixed ages. The samples were assessed for mortality 6 days after infestation.

Euschistus heros = experiment: Activity against Euschistus heros (neotropical brown stink bug), soybean leaves, N2 nymphs; details: 120 h, application rate 200 ppm, 5 days after infestation, vs untreated, read-out: effect in at least one of the two categories (mortality or growth inhibition)
Method: Example B3: Activity Against Euschistus heros (Neotropical Brown Stink Bug)
Soybean leaves on agar in 24-well microtiter plates were sprayed with aqueous test solutions prepared from 10′000 ppm DMSO stock solutions. After drying the leaves were infested with N2 nymphs. The samples were assessed for mortality and growth inhibition in comparison to untreated samples 5 days after infestation.

Myzus persicae [2] = experiment: Activity against Myzus persicae (green peach aphid), intrinsic activity; details: 120 h, test rate 12 ppm, 5 days after infestation, sucrose solution through Parafilm
Excerpt: Example B6: Activity Against Myzus persicae (Green Peach Aphid). Intrinsic Activity
Test compounds prepared from 10′000 ppm DMSO stock solutions were applied by pipette into 24-well microtiter plates and mixed with sucrose solution. The plates were closed with a stretched Parafilm. A plastic stencil with 24 holes was placed onto the plate and infested pea seedlings were placed directly on the Parafilm. The infested plate was closed with a gel blotting paper and another plastic stencil and then turned upside down. The samples were assessed for mortality 5 days after infestation.

Spodoptera littoralis = experiment: Activity against Spodoptera littoralis (Egyptian cotton leaf worm), cotton leaf discs, L1 larvae; details: foliar, 72 h, application rate 200 ppm, 3 days after infestation, vs untreated, read-out: control in at least one of the three categories (mortality, anti-feedant effect, or growth inhibition)
Method: Example B8: Activity Against Spodoptera littoralis (Egyptian Cotton Leaf Worm)
Cotton leaf discs were placed onto agar in 24-well microtiter plates and sprayed with aqueous test solutions prepared from 10′000 ppm DMSO stock solutions. After drying the leaf discs were infested with five L1 larvae. The samples were assessed for mortality, anti-feeding effect, and growth inhibition in comparison to untreated samples 3 days after infestation. Control of Spodoptera littoralis by a test sample is given when at least one of the categories mortality, anti-feedant effect, and growth inhibition is higher than the untreated sample.

Diabrotica balteata = experiment: Activity against Diabrotica balteata (corn root worm), maize sprouts, L2 larvae; details: 96 h, application rate 200 ppm, 4 days after infestation, vs untreated, read-out: control in at least one of the two categories (mortality or growth inhibition)
Method: Example B2: Activity Against Diabrotica balteata (Corn Root Worm)
Maize sprouts placed onto an agar layer in 24-well microtiter plates were treated with aqueous test solutions prepared from 10′000 ppm DMSO stock solutions by spraying. After drying, the plates were infested with L2 larvae (6 to 10 per well). The samples were assessed for mortality and growth inhibition in comparison to untreated samples 4 days after infestation.

Chilo suppressalis = experiment: Activity against Chilo suppressalis (striped rice stemborer), artificial diet, L2 larvae; details: 144 h, application rate 200 ppm, 6 days after infestation, vs untreated, read-out: control in at least one of the three categories (mortality, anti-feedant effect, or growth inhibition)
Method: Example B1: Activity Against Chilo suppressalis (Striped Rice Stemborer)
24-well microtiter plates with artificial diet were treated with aqueous test solutions prepared from 10′000 ppm DMSO stock solutions by pipetting. After drying, the plates were infested with L2 larvae (6-8 per well). The samples were assessed for mortality, anti-feeding effect, and growth inhibition in comparison to untreated samples 6 days after infestation. Control of Chilo suppressalis by a test sample is given when at least one of the categories mortality, anti-feedant effect, and growth inhibition is higher than the untreated sample.

C[C@H](Nc1ncnc2c(Cl)cc(I)cc12)c1ncnn1-c1ccc(=O)n(C)n1 [P20, 6-[5-[(1S)-1-[(8-chloro-6-iodo-quinazolin-4-yl)-amino]ethyl]-1,2,4-triazol-1-yl]-2-methyl-pyridazin-3-one]
≥ 80%: percent control (mortality or growth inhibition) at 200 ppm (Plutella xylostella) | mortality at 200 ppm (Myzus persicae [1])

CC(Nc1ncnc2c(C(F)(F)F)cc(C(F)(F)F)cc12)c1nccnc1-c1ccc(=O)n(C)n1 (centres unmarked) [P8, 6-[3-[1-[[6,8-bis-(trifluoromethyl)-quinazolin-4-yl]amino]ethyl]pyr-azin-2-yl]-2-meth-yl-pyridazin-3-one]
≥ 80%: percent control (mortality or growth inhibition) at 200 ppm (Plutella xylostella) | percent effect (mortality or growth inhibition) at 200 ppm (Euschistus heros) | mortality at 12 ppm (Myzus persicae [2]) | percent control (mortality, anti-feedant effect or growth inhibition) at 200 ppm (Spodoptera littoralis) | percent control (mortality or growth inhibition) at 200 ppm (Diabrotica balteata) | mortality at 200 ppm (Myzus persicae [1]) | percent control (mortality, anti-feedant effect or growth inhibition) at 200 ppm (Chilo suppressalis)

C[C@H](Nc1ncnc2c(C(F)(F)F)cc(C(F)(F)F)cc12)c1ncnn1-c1ccc(=O)n(C)n1 [P3, 6-[5-[(1S)-1-[[6,8-bis(trifluoromethyl)quinazolin-4-yl]amino]ethyl]-1,2,4-triazol-1-yl]-2-methyl-pyridazin-3-one]
≥ 80%: percent control (mortality or growth inhibition) at 200 ppm (Plutella xylostella) | percent effect (mortality or growth inhibition) at 200 ppm (Euschistus heros) | mortality at 12 ppm (Myzus persicae [2]) | percent control (mortality, anti-feedant effect or growth inhibition) at 200 ppm (Spodoptera littoralis) | percent control (mortality or growth inhibition) at 200 ppm (Diabrotica balteata) | mortality at 200 ppm (Myzus persicae [1]) | percent control (mortality, anti-feedant effect or growth inhibition) at 200 ppm (Chilo suppressalis)

C[C@H](Nc1nc(Cl)nc2c(Cl)cc(C(F)(F)F)cc12)c1ncnn1-c1ccc(=O)n(C)n1 [P4, 6-[5-[(1S)-1-[[2,8-dichloro-6-(trifluoromethyl)quinazolin-4-yl]amino]ethyl]-1,2,4-triazol-1-yl]-2-methyl-pyridazin-3-one]
≥ 80%: percent control (mortality or growth inhibition) at 200 ppm (Plutella xylostella) | percent control (mortality or growth inhibition) at 200 ppm (Diabrotica balteata) | mortality at 200 ppm (Myzus persicae [1]) | percent control (mortality, anti-feedant effect or growth inhibition) at 200 ppm (Chilo suppressalis)

CCn1nc(-n2ncnc2[C@H](C)Nc2ncnc3c(Cl)cc(C(F)(F)F)cc23)ccc1=O [P17, 6-[5-[(1S)-1-[[8-chloro-6-(trifluoromethyl)quinazolin-4-yl]amino]ethyl]-1,2,4-triazol-1-yl]-2-ethyl-pyridazin-3-one]
≥ 80%: percent control (mortality or growth inhibition) at 200 ppm (Plutella xylostella) | percent effect (mortality or growth inhibition) at 200 ppm (Euschistus heros) | mortality at 12 ppm (Myzus persicae [2]) | percent control (mortality, anti-feedant effect or growth inhibition) at 200 ppm (Spodoptera littoralis) | percent control (mortality or growth inhibition) at 200 ppm (Diabrotica balteata) | mortality at 200 ppm (Myzus persicae [1]) | percent control (mortality, anti-feedant effect or growth inhibition) at 200 ppm (Chilo suppressalis)

CCn1nc(-n2ncnc2[C@H](C)N(C)c2ncnc3c(C(F)(F)F)cc(Cl)cc23)ccc1=O [P15, 6-[5-[(1S)-1-[[6-chloro-8-(trifluoro-methyl)quinazolin-4-yl]-methyl-amino]ethyl]-1,2,4-triazol-1-yl]-2-ethyl-pyrid-azin-3-one]
≥ 80%: percent control (mortality or growth inhibition) at 200 ppm (Plutella xylostella) | percent effect (mortality or growth inhibition) at 200 ppm (Euschistus heros) | mortality at 12 ppm (Myzus persicae [2]) | percent control (mortality, anti-feedant effect or growth inhibition) at 200 ppm (Spodoptera littoralis) | percent control (mortality or growth inhibition) at 200 ppm (Diabrotica balteata) | mortality at 200 ppm (Myzus persicae [1]) | percent control (mortality, anti-feedant effect or growth inhibition) at 200 ppm (Chilo suppressalis)

CC(Nc1ncnc2c(C(F)(F)F)cc(Cl)cc12)c1nccnc1-c1ccc(=O)n(C)n1 (centres unmarked) [P10, 6-[3-[1-[[6-chloro-8-(trifluorometh-yl)quinazolin-4-yl]amino]ethyl]pyr-azin-2-yl]-2-methyl-pyridazin-3-one]
≥ 80%: percent control (mortality or growth inhibition) at 200 ppm (Plutella xylostella) | percent effect (mortality or growth inhibition) at 200 ppm (Euschistus heros) | mortality at 12 ppm (Myzus persicae [2]) | percent control (mortality, anti-feedant effect or growth inhibition) at 200 ppm (Spodoptera littoralis) | percent control (mortality or growth inhibition) at 200 ppm (Diabrotica balteata) | mortality at 200 ppm (Myzus persicae [1]) | percent control (mortality, anti-feedant effect or growth inhibition) at 200 ppm (Chilo suppressalis)

CC(Nc1ncnc2c(Cl)cc(C(F)(F)F)cc12)c1nccnc1-c1ccc(=O)n(C)n1 (centres unmarked) [P13, 6-[3-[1-[[8-chloro-6-(trifluoromethyl)quinazolin-4-yl]amino]ethyl]pyrazin-2-yl]-2-methyl-pyridazin-3-one]
≥ 80%: percent control (mortality or growth inhibition) at 200 ppm (Plutella xylostella) | percent effect (mortality or growth inhibition) at 200 ppm (Euschistus heros) | mortality at 12 ppm (Myzus persicae [2]) | percent control (mortality, anti-feedant effect or growth inhibition) at 200 ppm (Spodoptera littoralis) | percent control (mortality or growth inhibition) at 200 ppm (Diabrotica balteata) | mortality at 200 ppm (Myzus persicae [1]) | percent control (mortality, anti-feedant effect or growth inhibition) at 200 ppm (Chilo suppressalis)

C[C@H](Nc1ncnc2c(C(F)(F)F)cc(Cl)cc12)c1ncnn1C1=NN(C)C(=O)CC1 [P9, 6-[5-[(1S)-1-[[6-chloro-8-(trifluoro-methyl)quinazolin-4-yl]amino]ethyl]-1,2,4-triazol-1-yl]-2-methyl-4,5-di-hydropyridazin-3-one]
≥ 80%: percent control (mortality or growth inhibition) at 200 ppm (Plutella xylostella) | percent effect (mortality or growth inhibition) at 200 ppm (Euschistus heros) | mortality at 12 ppm (Myzus persicae [2]) | percent control (mortality, anti-feedant effect or growth inhibition) at 200 ppm (Spodoptera littoralis) | percent control (mortality or growth inhibition) at 200 ppm (Diabrotica balteata) | mortality at 200 ppm (Myzus persicae [1]) | percent control (mortality, anti-feedant effect or growth inhibition) at 200 ppm (Chilo suppressalis)

CCn1nc(-n2ncnc2[C@H](C)N(C)c2ncnc3c(Cl)cc(C(F)(F)F)cc23)ccc1=O [P22, 6-[5-[(1S)-1-[[8-chloro-6-(trifluoro-methyl)quinazolin-4-yl]-methyl-amino]ethyl]-1,2,4-triazol-1-yl]-2-ethyl-pyrid-azin-3-one]
≥ 80%: percent control (mortality or growth inhibition) at 200 ppm (Plutella xylostella) | percent effect (mortality or growth inhibition) at 200 ppm (Euschistus heros) | mortality at 12 ppm (Myzus persicae [2]) | percent control (mortality, anti-feedant effect or growth inhibition) at 200 ppm (Spodoptera littoralis) | percent control (mortality or growth inhibition) at 200 ppm (Diabrotica balteata) | mortality at 200 ppm (Myzus persicae [1]) | percent control (mortality, anti-feedant effect or growth inhibition) at 200 ppm (Chilo suppressalis)

C[C@H](Nc1ncnc2c(C(F)(F)F)cc(Cl)cc12)c1ncnn1-c1ccc(=O)n(C)n1 [P2, 6-[5-[(1S)-1-[[6-chloro-8-(trifluoromethyl)quinazolin-4-yl]amino]ethyl]-1,2,4-triazol-1-yl]-2-methyl-pyridazin-3-one]
≥ 80%: percent control (mortality or growth inhibition) at 200 ppm (Plutella xylostella) | percent effect (mortality or growth inhibition) at 200 ppm (Euschistus heros) | percent control (mortality, anti-feedant effect or growth inhibition) at 200 ppm (Spodoptera littoralis) | percent control (mortality or growth inhibition) at 200 ppm (Diabrotica balteata) | mortality at 200 ppm (Myzus persicae [1]) | percent control (mortality, anti-feedant effect or growth inhibition) at 200 ppm (Chilo suppressalis)

C[C@@H](c1ncnn1-c1ccc(=O)n(C)n1)N(C)c1ncnc2c(Br)cc(Br)cc12 [P14, 6-[5-[(1S)-1-[(6,8-dibromoquinazolin-4-yl)-methyl-amino]ethyl]-1,2,4-triazol-1-yl]-2-methyl-pyridazin-3-one]
≥ 80%: percent control (mortality or growth inhibition) at 200 ppm (Plutella xylostella) | percent effect (mortality or growth inhibition) at 200 ppm (Euschistus heros) | mortality at 12 ppm (Myzus persicae [2]) | percent control (mortality, anti-feedant effect or growth inhibition) at 200 ppm (Spodoptera littoralis) | percent control (mortality or growth inhibition) at 200 ppm (Diabrotica balteata) | mortality at 200 ppm (Myzus persicae [1])
